Ends that are not written are not given here.
Target: T1, Recombinant Human Insulin Receptor (28-956) (soluble insulin receptor, SIR) (Homo sapiens, UniProt P06213)
T1 construct: Recombinant Human Insulin Receptor (28-956); purchased GT/TECHNE Corp
Assay: BIAcore determination of peptide-SIR binding (peptide immobilized on sensor chip CM5, soluble insulin receptor as analyte)
Settings: sensor chip CM5, amine coupling, HBS-EP buffer, SIR 100 nM to 0.781 nM, flow 10 μl/min; for koff: read-out: Dissociation rate constant (peptide-SIR)
Protocol: The affinity for the soluble insulin receptor identified by SEQ ID NO:1 is compared by the method using BIAcore (BIAcore AB) (as described in Am. J. Physiol. 272 (1997) E1089-1098). Briefly, a solution of the soluble insulin receptor is brought into contact with the surface of the ready-made sensor chip with the peptide defined by SEQ ID NO:1 as immobilized thereon, and the interaction is measured.
The dissociation constant (KD) of the peptide P14 obtained in Example 3 was determined using BIAcore upgrade (Biacore AB) and the analysis software BIA evaluation version 3.0 (Biacore AB).
(§1) The ligand was immobilized on the sensor chip CM5 research grade (Biacore AB) by the amine coupling method. Thus, the peptide mentioned above was dissolved in 20 mM carbonate buffer (pH 8.5) (500 μg/ml), and 100 μl of the solution was passed through the flow cell at a flow rate of 5 μl/min. The amount of the peptide immobilized was 200 RU (resonance units).
Recombinant Human Insulin Receptor (28-956) (GT/TECHNE Corp.) was used as the analyte soluble insulin receptor (SIR). To 50 mg in a vial was added HBS-EP buffer (250 ml) for thorough dissolution ([…]), and the solution was 10-fold diluted to give a 100 nM solution. Eight concentration levels from 100 nM to 0.781 nM were prepared by subsequent repetitions of doubling dilution, and measurements were carried out using HBS-EP buffer (10 mM HEPES pH 7.4, 0.15M NaCl, 3 mM EDTA, 0.005% Surfactant P20) (Biacore AB) as a running solution; the rate of flow was 10 μl/min. A sensorgram was thus obtained.
The dissociation constant (KD) of the peptide P15 obtained in Example 6 was determined using BIAcore upgrade (Biacore AB) and the analysis software BIA evaluation version 3.0 (Biacore AB).
as §1, with “130 RU.” for “200 RU (resonance units).”
Recombinant Human Insulin Receptor (28-956) (GT/TECHNE Corp.) was used as the analyte SIR. Eight concentration levels from 100 nM to 0.781 nM were prepared by subsequent repetitions of doubling dilution, which was started from diluting 100 nM solution, and measurements were carried out using HBS-EP buffer as a running solution; the rate of flow was 10 μl/min. A sensorgram was thus obtained.
The dissociation constant (KD) of the peptide P21 obtained in Example 7 was determined using BIAcore upgrade (Biacore AB) and the analysis software BIA evaluation version 3.0 (Biacore AB).
as §1, with “270 RU.” for “200 RU (resonance units).”

T1 sequence (P06213 28-956): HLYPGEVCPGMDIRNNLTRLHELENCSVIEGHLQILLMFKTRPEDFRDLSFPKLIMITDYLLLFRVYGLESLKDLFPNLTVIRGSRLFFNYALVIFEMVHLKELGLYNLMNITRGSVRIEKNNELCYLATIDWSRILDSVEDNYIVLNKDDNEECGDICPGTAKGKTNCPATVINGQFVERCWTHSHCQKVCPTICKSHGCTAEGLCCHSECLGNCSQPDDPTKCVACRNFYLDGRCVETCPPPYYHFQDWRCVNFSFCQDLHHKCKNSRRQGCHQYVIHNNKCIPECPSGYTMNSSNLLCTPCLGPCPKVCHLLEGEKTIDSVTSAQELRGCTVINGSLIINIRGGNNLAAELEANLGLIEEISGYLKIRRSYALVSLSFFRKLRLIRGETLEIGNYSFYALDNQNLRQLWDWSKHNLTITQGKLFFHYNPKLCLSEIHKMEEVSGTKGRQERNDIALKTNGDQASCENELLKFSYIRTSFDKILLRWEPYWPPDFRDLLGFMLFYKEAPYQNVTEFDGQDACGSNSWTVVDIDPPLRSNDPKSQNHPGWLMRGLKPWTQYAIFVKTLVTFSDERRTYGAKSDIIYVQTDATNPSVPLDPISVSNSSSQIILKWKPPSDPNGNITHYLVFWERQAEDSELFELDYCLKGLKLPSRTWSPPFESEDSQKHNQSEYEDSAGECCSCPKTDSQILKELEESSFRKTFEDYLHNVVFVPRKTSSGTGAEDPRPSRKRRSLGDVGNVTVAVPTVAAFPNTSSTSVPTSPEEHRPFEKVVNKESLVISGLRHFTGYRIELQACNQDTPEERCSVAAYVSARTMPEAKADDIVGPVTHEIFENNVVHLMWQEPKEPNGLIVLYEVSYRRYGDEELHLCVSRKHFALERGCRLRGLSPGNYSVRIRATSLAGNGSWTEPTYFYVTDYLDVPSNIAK

Binding rate constant (peptide-SIR) | koff [s⁻¹] | Sequence
8.6E+02 | 0.02 | CASDIVEGIYL [Peptide P15, CASDIVEGIYL]
9.7E+03 | 0.015 | CASDIVEGLYIVLAER [Peptide P14, CASDIVEGLYIVLAER]
5.1E+04 | 0.6 | CQHILGSDIVEGIYL [Peptide P21, CQHILGSDIVEGIYL]

Source: patent publication US7906618B2, “Peptide capable of binding to insulin-binding protein and adsorbent” (Kaneka Corporation, priority 2004, dated 2011)
